Reference: patent US20080261902A1, “Pharmaceutical composition containing polydatin and its application” (Shenzhen Neptunus Pharmaceutical Co., Ltd., priority 2005, published 2008)
≈ marks a conversion by molar mass, not a printed value.

Columns and labels:
hyperlipoidemia patient = details: 2.2 mg/kg/d; cited from earlier work
[1] = tested on: SD rats, shock related to skin burn; assay: Treatment action for shock related to skin burn (Embodiment A8); format: in vivo; details: 2.4 mg/kg venous injection half hour after burning; control 7.0±2.6 hours
[2] = Solubility of polydatin in alcohol-propanediol-water mixed solvent (Embodiment 15); format: physicochemical; details: mixed solvent of 60% alcohol-water and propanediol 10:25(v/v) as printed
[3] = tested on: SD rats, shock related to blood loss; assay: Treatment action for shock related to blood loss (Embodiment A7)
[4] = Solubility of polydatin in alcohol-water solution and normal saline (Embodiment 13); format: physicochemical; details: room temperature; for solubility at 8 h: thermodynamic from solid
Method: • 1. Materials: Anhydrous alcohol, analytically pure, Guangzhou No.2 chemical reagent factory; purified water, […] industry city; 0.9% sodium chloride injection, batch number C040514-092, Sichuan kelun pharmaceutical co., ltd. • 2. Method: Preparing alcohol water solutions having concentration of 15%, […] 30%, 40%, 50%, 60%, 70%, 80%, 90%, 95%(v/v) with anhydrous alcohol and purified water. Precisely Measuring water, anhydrous alcohol, 0.9% sodium chloride injection (normal saline) and 20 ml alcohol water solution of each above concentration, adding polydatin of proper amount respectively, treating with ultrasonic for 20 min under 40 □, supersaturating the solution, placing for 8 h under room temperature, filtering with 0.45 μm microporous membrane, wherein the filtrates are saturated solutions of polydatin in alcohol water solutions of different concentration. Adopting HPLC method to determine content of polydatin in the filtrates and calculate solubility of polydatin referring to document 20. • 3. Result: […]

[5] = Effect of pH to solubility of polydatin (Embodiment 12); format: physicochemical; details: for solubility at 8 h: deionized water of adjusted pH, thermodynamic from solid, water, room temperature
Method: • 1. Materials: Deionized water, […] industry city; sodium hydroxide, Dongguan dongjiang chemical reagent co., ltd.; hydrochloric acid, Dongguan dongjiang chemical reagent co., ltd. • 2. Method: Regulating deionized water into pH of 5.0˜12.0 with 0.2N sodium hydroxide and 0.2N hydrochloric acid. Measuring precisely 20 ml each of above solutions, adding polydatin of proper amount respectively, treating with ultrasonic for 20 min under 40° C., supersaturating the solution, placing for 8 h under room temperature, filtering with 0.45 μm microporous membrane, wherein the filtrates are saturated solutions of polydatin in water solutions of different pHs. Adopting HPLC method to determine content of polydatin in the filtrates and calculate solubility of polydatin referring to document 20 (Wuye etc., determination content of resveratrol glycoside and tangerine peel glycoside in qing dan capsule with HPLC method, Chinese traditional patent medicine, 1999, 21(5): 226). • 3.

[6] = Solubility of polydatin in propanediol-water solution (Embodiment 14); format: physicochemical; details: for solubility at 8 h: thermodynamic from solid, room temperature
Method: Materials: 1,2-propanediol, analytically pure, Guangzhou No. 2 chemical reagent factory; purified water, […] industry city. Method: Preparing propanediol water solutions having concentration of at least 20%(v/v) with propanediol and purified water. Precisely measuring propanediol and 20 ml propanediol water solution of each above concentration, adding polydatin of proper amount respectively, treating with ultrasonic for 20 min under 40° C., supersaturating the solution, placing for 8 h under room temperature, filtering with 0.45 μm microporous membrane, wherein the filtrates are saturated solutions of polydatin in propanediol water solutions of different concentration. Adopting HPLC method to determine content of polydatin in the filtrates and calculate solubility of polydatin referring to document 20.

[7] = tested on: dogs in hemorrhagic shock; assay: Treatment effect of polydatin drug compositions to dogs in hemorrhagic shock (Embodiment 20); format: in vivo, Beagle dogs; details: for survival rate: 168 hours
[8] = tested on: shock caused by bleeding in rats; details: versus equal dose of comparators; cited from earlier work
blood platelet = details: 6˜100 μmol/L; cited from earlier work
[9] = Polydatin solutions prepared by conventional methods (high pH, heating, tween 80); format: physicochemical
Excerpt: It is widely known by technicians in the field that clinic solutions require pH4.0˜9.0. Obviously, it is hard to prepare polydatin water solution of effective concentration by adjusting pH only. Furthermore, the polydatin has bad stability in solutions of high pH, so the clinic application of the polydatin drug composition preparations of high pH will be further limited. The described document No. 19 adopts heating to dissolve to obtain polydatin drug compositions. According to the experiment, the solutions obtained by heating to dissolve precipitate solute as the temperature reduces, and the polydatin concentrations in the solutions are lower than 0.5 mg/ml after indoor temperature balancing. Obviously, the method is not suitable in preparing officinal medicine preparations. China Patent Application 02134928.2 describes a method of preparing polydatin solutions for injection by adopting adjusting pH and/or adding surfactants (tween 80). […] Furthermore, the prior documents indicate that preparations of administration in vein should be avoided to use as possible because tween surfactants have potential hemolytic and antihypertensive activity. (Zhuangyue etc., applied drug preparation technique, People's medical publishing house 1999:p417)

In the case of `OCC1OC(Oc2cc(O)cc(/C=C/c3ccc(O)cc3)c2)C(O)C(O)C1O` [polydatin, 3,4′,5-trihydroxy-trans stilbene-3-β-D-glucoside], the “total cholesterol, LDL/HDL cholesterol ratio, and blood platelet aggregation rate” value (hyperlipoidemia patient) is given as “capable of lowering”, the average survival period [1] is given as > 13.3 h and the “stabilization of the solution in cold preservation” value [2] is given as “good stabilization”. The “fraction of the treatment group with survival period of 24 hours” value ([3]; 2.4 mg/kg through femoral vein) was 9/10, the “fraction of the treatment group with survival period of 48 hours” value ([3]; 2.4 mg/kg through femoral vein) was 8/10 and the “fraction of the treatment group with survival period of 72 hours” value ([3]; 2.4 mg/kg through femoral vein) was 6/10. The “ratio of the survival time of the treatment group and the control group” value ([3]; 2.4 mg/kg through femoral vein, 1 hour after shock) was > 5.5, the arterial pressure ([3]; after 30 minutes of medication, 2.4 mg/kg, 5.3+0.2 kPa after shock for 1 hour) was 8.6+0.8 kPa and the “increase of diameter of micro blood vessel” value ([3]; after medication, 2.4 mg/kg, diameter reduced to 63.3% by shock) was 20.3%. The solubility at 8 h ([4]; alcohol-water solution, aqueous with cosolvent or surfactant or cyclodextrin, alcohol water solution 50%~95% (v/v)) was > 20 mg/mL, the solubility at 8 h ([4]; alcohol-water solution, aqueous with cosolvent or surfactant or cyclodextrin, content of alcohol 15% (v/v) in water) was ~1 mg/mL (≈ 2.56 mM) and the solubility at 8 h ([4]; alcohol-water solution, aqueous with cosolvent or surfactant or cyclodextrin, content of alcohol 30% (v/v) in water) was ~6 mg/mL (≈ 15.4 mM). The solubility at 8 h ([4]; alcohol-water solution, aqueous with cosolvent or surfactant or cyclodextrin, content of alcohol 40% (v/v) in water) was 9.2 mg/mL (≈ 23.6 mM), the solubility at 8 h ([4]; alcohol-water solution, aqueous with cosolvent or surfactant or cyclodextrin, content of alcohol 50% (v/v) in water) was ~25 mg/mL (≈ 64 mM) and the solubility at 8 h ([4]; alcohol-water solution, aqueous with cosolvent or surfactant or cyclodextrin, content of alcohol 60% (v/v) in water) was ~42 mg/mL (≈ 108 mM). For the same molecule, the solubility at 8 h ([4]; alcohol-water solution, aqueous with cosolvent or surfactant or cyclodextrin, content of alcohol 70% (v/v) in water) was ~80 mg/mL (≈ 205 mM), the solubility at 8 h ([4]; alcohol-water solution, aqueous with cosolvent or surfactant or cyclodextrin, content of alcohol 80% (v/v) in water) was 76.8 mg/mL (≈ 197 mM) and the solubility at 8 h ([4]; alcohol-water solution, aqueous with cosolvent or surfactant or cyclodextrin, content of alcohol 90% (v/v) in water) was ~75 mg/mL (≈ 192 mM). For the same molecule, the solubility at 8 h ([4]; alcohol-water solution, aqueous with cosolvent or surfactant or cyclodextrin, content of alcohol 95% (v/v) in water) was 30.7 mg/mL (≈ 78.6 mM), the solubility at 8 h ([4]; anhydrous alcohol, organic solvent or mixture, content of alcohol 100% (anhydrous alcohol)) was ~20 mg/mL (≈ 51.2 mM) and the solubility ([4]; content of alcohol 70% (v/v) in water) was 80.9 mg/mL (≈ 207 mM). The solubility at 8 h ([4]; normal saline, saline or isotonic, normal saline (0.9% sodium chloride injection)) was < 0.5 mg/mL, the solubility at 8 h ([4]; purified water, water, content of alcohol 0% (purified water)) was < 0.5 mg/mL and the “pH of the solution needed to obtain polydatin water solution” value ([5]; concentration above 3 mg/ml) was “above 12”. The solubility at 8 h ([5]; pH 5, aqueous buffer, pH of solvent 5.0) was < 0.5 mg/mL, the solubility at 8 h ([5]; pH 6, aqueous buffer, pH of solvent 6.0) was < 0.5 mg/mL and the solubility at 8 h ([5]; pH 7, aqueous buffer, pH of solvent 7.0) was < 0.5 mg/mL. For the same molecule, the solubility at 8 h ([5]; pH 8, aqueous buffer, pH of solvent 8.0) was < 0.5 mg/mL, the solubility at 8 h ([5]; pH 9, aqueous buffer, pH of solvent 9.0) was < 0.5 mg/mL and the solubility at 8 h ([5]; pH 10, aqueous buffer, pH of solvent 10.0) was < 0.5 mg/mL. For the same molecule, the solubility at 8 h ([5]; pH 11, aqueous buffer, pH of solvent 11.0) was 0.7 mg/mL (≈ 1.79 mM), the solubility at 8 h ([5]; pH 12, aqueous buffer, pH of solvent 12.0) was ~5 mg/mL (≈ 12.8 mM) and the “pH of final solution” value ([5]; pH of solvent 12) was “about 10”. The “pH of the final solution” value ([5]; polydatin water solution of concentration above 3 mg/ml) was “above 10”, the solubility at 8 h ([6]; 1,2-propanediol, organic solvent or mixture, content of propanediol 100% (propanediol)) was ~60 mg/mL (≈ 154 mM) and the “stability of the solution” value ([6]; 20% propanediol water solution, about 3.5 mg/ml) was “precipitates solute of polydatin after placing for 12 h”. The solubility at 8 h ([6]; propanediol-water solution, aqueous with cosolvent or surfactant or cyclodextrin, content of propanediol 20% (v/v) in water) was ~3.5 mg/mL (≈ 8.97 mM), the solubility at 8 h ([6]; propanediol-water solution, aqueous with cosolvent or surfactant or cyclodextrin, content of propanediol 35% (v/v) in water) was 4.9 mg/mL (≈ 12.6 mM) and the solubility at 8 h ([6]; propanediol-water solution, aqueous with cosolvent or surfactant or cyclodextrin, content of propanediol 50% (v/v) in water) was 24.4 mg/mL (≈ 62.5 mM). It also gave a solubility at 8 h ([6]; propanediol-water solution, aqueous with cosolvent or surfactant or cyclodextrin, content of propanediol 65% (v/v) in water) of 28.3 mg/mL (≈ 72.5 mM), a solubility at 8 h ([6]; propanediol-water solution, aqueous with cosolvent or surfactant or cyclodextrin, content of propanediol 80% (v/v) in water) of 33.6 mg/mL (≈ 86.1 mM) and a survival rate ([7]; 1.8 mg/kg) of 3 number/5. The survival rate ([7]; 3.0 mg/kg) was 4 number/5, the survival rate ([7]; 5.0 mg/kg) was 4 number/5 and the “average arterial pressure (FIG. 1)” value ([7]; high dose 5.0 mg/kg, compared with blank control and dopamine groups) was “can maintain blood pressure of dogs after acute hemorrhage”. The “treatment effect to shock caused by bleeding” value [8] was “better than that of using an equal dose of Dopamine and Anisodamine hydrobromide”, the “production of the platelet accumulation and B2 thrombus induced by AA and ADP” value (blood platelet) was “capable of inhibiting” and the “sensitivity of polydatin (solution)” value [9] was “sensitive to temperature and light”. The “polydatin concentration in solutions obtained by heating to dissolve” value ([9]; after indoor temperature balancing) was “lower than 0.5 mg/ml”, the “stability in solutions of high pH” value ([9]; high pH) was “bad stability” and the “cold preservation of polydatin drug composition” value ([9]; tween 80 of 0.5%, pH8.5, concentration 4 mg/ml, 4° C.) was “can not be cold preserved”.
